# Like-named read-outs stand apart in the source and are kept apart here.
# What was measured:
# EcRelA = target: T1, EcRelA (Escherichia coli, UniProt P0AG20); type: biochemical
# T1 construct: gene relA
# [1] = target: Francisella tularensis RelA (Francisella tularensis subspecies tularensis SCHU S4); assay: SEC
# T1 sequence (P0AG20 whole entry): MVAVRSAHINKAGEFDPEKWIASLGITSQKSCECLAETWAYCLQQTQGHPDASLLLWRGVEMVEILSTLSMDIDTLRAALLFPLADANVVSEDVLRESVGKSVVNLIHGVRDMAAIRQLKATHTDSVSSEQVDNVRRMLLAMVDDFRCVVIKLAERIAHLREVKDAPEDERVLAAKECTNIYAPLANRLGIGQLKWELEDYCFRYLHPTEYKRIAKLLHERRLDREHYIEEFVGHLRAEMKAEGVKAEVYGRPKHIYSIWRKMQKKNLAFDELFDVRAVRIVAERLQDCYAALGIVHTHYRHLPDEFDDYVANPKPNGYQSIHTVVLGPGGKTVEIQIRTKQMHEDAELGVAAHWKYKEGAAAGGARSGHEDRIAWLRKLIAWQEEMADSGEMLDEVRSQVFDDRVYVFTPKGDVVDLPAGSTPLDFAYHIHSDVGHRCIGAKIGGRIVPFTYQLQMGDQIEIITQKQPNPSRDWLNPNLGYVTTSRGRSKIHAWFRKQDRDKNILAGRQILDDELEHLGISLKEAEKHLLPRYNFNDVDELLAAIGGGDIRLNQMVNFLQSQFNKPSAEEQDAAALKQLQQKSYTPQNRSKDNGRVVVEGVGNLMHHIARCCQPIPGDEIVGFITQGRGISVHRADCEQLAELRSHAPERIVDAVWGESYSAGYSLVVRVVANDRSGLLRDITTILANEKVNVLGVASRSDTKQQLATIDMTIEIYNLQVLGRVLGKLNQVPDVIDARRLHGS
compound,measurement,setting,value
Nc1nc2c(ncn2[C@@H]2O[C@H](COP(=O)(O)OP(=O)(O)OP(=O)(O)O)[C@@H](O)[C@H]2O)c(=O)[nH]1 [GTP],IP RP HPLC end-point assay of AMP formation,EcRelA,Both EcRelA and FtRelA demonstrated basal levels of activity in the absence of stalled ribosomes
Nc1ncnc2c1ncn2[C@@H]1O[C@H](COP(=O)(O)OP(=O)(O)OP(=O)(O)O)[C@@H](O)[C@H]1O [ATP],IP RP HPLC end-point assay of AMP formation,"EcRelA; 2 mM ATP and 2 mM GTP, 0.5 μM RelA, with or without stalled ribosomal complexes, 15 mM MgCl2, pH 8.0, 30°C",Both EcRelA and FtRelA demonstrated basal levels of activity in the absence of stalled ribosomes
Francisella tularensis RelA (enzyme),stoichiometry N,[1],2
